Assay results from patent US12077759B2, “Compositions and methods for treating pathologic calcification” (Washington University, priority 2021, dated 2024).

Tested on: Wnt/β-catenin pathway
Assay: Treatment of ACLp cells with Wnt agonist SKL2001 (rescue of osteogenesis)
Assay type: cell-based, human
Settings: SKL2001 10 μM
Procedure: In short, 5×10^5 ACLp cells were first treated with KIF26B shRNA or scrambled shRNA for 48 hours and selected by Puromycin for another 48 hours. Afterward, 2×10^5 ACLp cells were seeded in a 12-well plate. Next osteogenesis was induced as above but in addition, SKL2001 (10 μM) dissolved in dimethyl sulfoxide (DMSO, Sigma-Aldrich) or DMSO only (vehicle) was added to cells. The medium was changed 3 times a week. After 7 days of osteogenic induction, the protein levels of active and total β-catenin were detected by Western blot as described above. After culture for 28 days, the Alizarin red staining was performed as above. After 28 days of osteogenic induction, RNA was isolated and expression of AXIN2 and WNT16 was measured using standard methods detailed above.

Q: For `O=C(NCCCn1ccnc1)c1cc(-c2ccco2)on1` [SKL2001], which “decrease of active β-catenin protein levels after KIF26B knockdown (Western blot)” value (ACLp cells transduced with KIF26B shRNA, 7 days of osteogenic induction) is on record?
A: Its value is “significantly attenuated”.

Q: And the “decrease in osteogenesis due to KIF26B loss-of-function (Alizarin red staining)” value (ACLp cells transduced with KIF26B shRNA, 28 days)?
A: Its value is “reverted”.

Q: What about the “AXIN2 mRNA expression” value (ACLp cells, 28 days of osteogenic induction, vehicle (DMSO) 1.00±0.02, p<0.001) of the same molecule?
A: Its value is 2.20±0.08.

Q: What about the “WNT16 mRNA expression” value (ACLp cells, 28 days of osteogenic induction, vehicle (DMSO) 1.00±0.14, p<0.001) of the same molecule?
A: Its value is 3.06±0.13.
